US4575560A, “Insecticidal diaminoguanidine hydrazone compounds” (American Cyanamid Company, priority 1985, dated 1986)

Experiments:
Southern Armyworm = test: Southern armyworm test, third-instar larvae on treated Sieva lima bean leaves; type: in vivo, Spodoptera eridania (Cramer); details: third-instar larvae
Protocol: Test formulations and procedures used for evaluation are as follows:
A. 100 mg of the test material is weighed, placed in a funnel over a 113 g narrow-mouth bottle, rinsed into the bottle with a 35 mL scoop of acetone, followed by a 35 mL scoop of water and another 35 mL scoop of acetone to yield 1000 ppm in 65% acetone. If the material is not soluble, it is broken up with a glass rod and used as a suspension.
B. This stock solution ("A") is used to make 300 ppm solutions or suspensions by pipetting 30 mL of "A" into a bottle containing 70 mL of 50% acetone to yield 300 ppm. Further dilutions in 50% acetone are made as required.
C. Tests requiring 10 ppm acetone solutions: 1 mL of "A" is pipetted into 99 mL of acetone to yield 10 ppm. Additional dilutions are made using 50% acetone as required.
Southern Armyworm--Spodoptera eridania (Cramer)
A Sieva lima bean plant with just the primary leaves expanded to 1.91 cm is dipped for three seconds with agitation in the "A" solution of 1000 ppm and set in the hood to dry. Following this, one leaf is placed in a 9 cm petri dish which has a moist filter paper in the bottom and 10 third-instar armyworm larvae about 1 cm long. This dish is covered and held at 80° F., and 50% r.h. After two days, mortality counts and estimates of the amount of feeding are made. Compounds showing partial kill and/or inhibition of feeding are held for an extra day for further observations.
All compounds showing activity as defined above are retested, using the second leaf on the bean plant, after an interval of seven days from original treatment, as an assay of residual activity.

[1] = test system: Tobacco Budworm 3rd Instar; test: Tobacco budworm secondary test, third-instar larvae on treated cotton cotyledons; type: in vivo, Heliothis virescens (Fabricus)
Protocol: Tobacco Budworm--Heliothis virescens (Fabricus)
Three cotton plants with just expanded cotyledons are dipped in 1000 ppm solution and placed in the hood to dry. When dry, each cotyledon is cut in half, and 10 are each placed in a 28 g plastic medicine cup containing a 1.25 cm dental wick saturated with water, and one third-instar budworm larva is added. The cup is capped and held for three days at 80° F., 50% relative humidity, after which mortality counts are made.

Structure (SMILES) | Mortality Rating Southern Armyworm (Southern Armyworm; 100 ppm) | Mortality Rating Southern Armyworm (Southern Armyworm; 1000 ppm) | Mortality Rating Tobacco Budworm 3rd Instar ([1]; 1000 ppm) | reduced feeding (R) Tobacco Budworm 3rd Instar ([1]; 1000 ppm) | Mortality Rating Southern Armyworm (Southern Armyworm; 10 ppm) | Mortality Rating Tobacco Budworm 3rd Instar ([1]; 100 ppm) | reduced feeding (R) Tobacco Budworm 3rd Instar ([1]; 100 ppm) | Mortality Rating Tobacco Budworm 3rd Instar ([1]; 10 ppm)
N=C(NN=Cc1ccc(Br)cc1)NN=Cc1ccc(OC(F)(F)C(F)F)cc1 [Br / HCF2 CF2 O / B] | 9 (100%) | 9 (100%) | 0 (No effect) | R |  |  |  | 
N=C(NN=Cc1ccc(Br)cc1)NN=Cc1ccc(C(F)(F)F)cc1 [CF3 / Br / B] | 9 (100%) | 9 (100%) | 0 (No effect) | R | 9 (100%) |  |  | 
N=C(NN=Cc1ccc(Br)cc1)NN=Cc1ccc(C(F)(F)F)cc1 [CF3 / Br / S] |  | 9 (100%) | 0 (No effect) | R | 0 (No effect) | 0 (No effect) | R | 
CCCOC(=O)N(N=Cc1ccc(C(F)(F)F)cc1)C(=N)NN=Cc1ccc(C(F)(F)F)cc1 [CF3 / CF3 / -n-C3 H7] | 9 (100%) | 9 (100%) | 0 (No effect) |  | 4 (46-55%) |  |  | 
CCCCOC(=O)N(N=Cc1ccc(C(F)(F)F)cc1)C(=N)NN=Cc1ccc(C(F)(F)F)cc1 [CF3 / CF3 / -n-C4 H9] | 0 (No effect) | 9 (100%) | 0 (No effect) |  |  |  |  | 
N=C(NN=Cc1ccc(C(F)(F)F)cc1)N(N=Cc1ccc(C(F)(F)F)cc1)C(=O)OCCBr [CF3 / CF3 / BrCH2 CH2] | 0 (No effect) | 9 (100%) | 0 (No effect) |  | 0 (No effect) |  |  | 
CCOC(=O)N(N=Cc1ccc(C(F)(F)F)cc1)C(=N)NN=Cc1ccc(C(F)(F)F)cc1 [CF3 / CF3 / C2 H5, 3-[p-(trifluoromethyl)benzylidene]-2-{{[p-(trifluoromethyl)benzylidene]amino}amidino}carbazate] | 7 (76-85%) | 9 (100%) |  |  | 9 (100%) |  |  | 
C=CCOC(=O)N(N=Cc1ccc(C(F)(F)F)cc1)C(=N)NN=Cc1ccc(C(F)(F)F)cc1 [CF3 / CF3 / CH2CHCH2] | 9 (100%) | 9 (100%) | 0 (No effect) | R | 0 (No effect) | 0 (No effect) |  | 
COC(=O)N(N=Cc1ccc(C(F)(F)F)cc1)C(=N)NN=Cc1ccc(C(F)(F)F)cc1 [CF3 / CF3 / CH3] | 9 (100%) | 9 (100%) | 6 (66-75%) |  | 3 (36-45%) |  |  | 
CC(C)(OC(=O)N(N=Cc1ccc(C(F)(F)F)cc1)C(=N)NN=Cc1ccc(C(F)(F)F)cc1)C(Cl)(Cl)Cl [CF3 / CF3 / Cl3 CC(CH3)2] | 9 (100%) | 9 (100%) | 9 (100%) |  | 0 (No effect) | 0 (No effect) | R | 0 (No effect)
N=C(NN=Cc1ccc(C(F)(F)F)cc1)N(N=Cc1ccc(C(F)(F)F)cc1)C(=O)OCC(Cl)(Cl)Cl [CF3 / CF3 / Cl3 CCH2] | 9 (100%) | 9 (100%) | 8 (86-99%) |  | 8 (86-99%) | 0 (No effect) | R | 0 (No effect)
N=C(NN=Cc1ccc(C(F)(F)F)cc1)N(N=Cc1ccc(C(F)(F)F)cc1)C(=O)OCCCl [CF3 / CF3 / ClCH2 CH2, 3-[p-(trifluoromethyl)benzylidene]-2-{{[p-(trifluoromethyl)benzylidene]amino}amidino}carbazate ester] | 9 (100%) | 9 (100%) | 2 (26-35%) | R | 8 (86-99%) | 0 (No effect) |  | 
CCC(C)OC(=O)N(N=Cc1ccc(C(F)(F)F)cc1)C(=N)NN=Cc1ccc(C(F)(F)F)cc1 (centres unmarked) [CF3 / CF3 / drawing 54] | 9 (100%) | 9 (100%) | 6 (66-75%) | R | 6 (66-75%) | 0 (No effect) | R | 
N=C(NN=Cc1ccc(Cl)cc1)NN=Cc1ccc(C(F)(F)F)cc1 [CF3 / Cl / B] | 9 (100%) | 9 (100%) | 4 (46-55%) | R |  | 0 (No effect) | R | 0 (No effect)
N=C(NN=Cc1ccc(OC(F)(F)C(F)F)cc1)NN=Cc1ccc(C(F)(F)F)cc1 [CF3 / HCF2 CF2 O / B, 1-{[p-(1,1,2,2-tetrafluoroethoxy)benzylidene]amino}-3-{[p-(trifluoromethyl)benzylidene]amino}guanidine] | 9 (100%) | 9 (100%) | 3 (36-45%) |  |  |  |  | 
N=C(NN=Cc1ccc(OCC(F)(F)F)cc1)NN=Cc1ccc(OCC(F)(F)F)cc1 [CF3 CH2 / S] | 8 (86-99%) | 9 (100%) | 0 (No effect) | R | 6 (66-75%) | 0 (No effect) |  | 
N=C(NN=Cc1ccc(OCC(F)(F)F)cc1)NN=Cc1ccc(OCC(F)(F)F)cc1 [CF3 CH2 O / B] | 0 (No effect) | 4 (46-55%) | 0 (No effect) | R |  | 0 (No effect) |  | 
N=C(NN=Cc1ccc(OC(F)(F)F)cc1)NN=Cc1ccc(OC(F)(F)F)cc1 [CF3 O / B] | 9 (100%) | 9 (100%) | 7 (76-85%) |  | 4 (46-55%) |  |  | 
CCOC(=O)N(N=Cc1ccc(Cl)cc1)C(=N)NN=Cc1ccc(Cl)cc1 [Cl / Cl / C2 H5] | 9 (100%) | 8 (86-99%) |  |  |  |  |  | 
N=C(NN=Cc1ccc(Cl)cc1)NN=Cc1ccc(OC(F)(F)C(F)F)cc1 [Cl / HCF2 CF2 O / S] |  |  | 0 (No effect) | R |  |  |  | 
COC(=O)N(N=Cc1ccc(OC(F)(F)C(F)F)cc1)C(=N)NN=Cc1ccc(OC(F)(F)C(F)F)cc1 [HCF2 CF2 O / HCF2 CF2 O / CH3] | 9 (100%) | 9 (100%) |  |  |  |  |  | 
N=C(NN=Cc1ccc(SC(F)(F)C(F)F)cc1)NN=Cc1ccc(SC(F)(F)C(F)F)cc1 [HCF2 CF2 S / S] |  |  |  |  | 6 (66-75%) |  |  | 
